Experimental data: PMC5704035 (Biochemistry and Biophysics Reports, 2017)

Target: AzoA (Enterococcus faecalis, UniProt Q831B2)
Assay: spectroscopy of purified protein, FMN to protein molar ratio
Assay type: binding
Settings: co-purified flavin; two sites per homodimer

AzoA, sequence (Q831B2 whole entry): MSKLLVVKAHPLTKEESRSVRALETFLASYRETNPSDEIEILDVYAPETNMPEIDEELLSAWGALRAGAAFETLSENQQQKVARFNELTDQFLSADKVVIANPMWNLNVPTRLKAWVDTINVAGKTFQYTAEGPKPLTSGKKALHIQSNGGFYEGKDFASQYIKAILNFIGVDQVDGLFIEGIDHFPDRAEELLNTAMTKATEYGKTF

## Cc1cc2nc3c(=O)[nH]c(=O)nc-3n(C[C@H](O)[C@H](O)[C@H](O)COP(=O)(O)O)c2cc1C [FMN]
  spectroscopy of purified protein, FMN to protein molar ratio: suggesting that two FMN molecules bind to an AzoA (wild-type and mutants)
